Assay results reported in paper PMC3090406, “Crystal Structures of Two Aminoglycoside Kinases Bound with a Eukaryotic Protein Kinase Inhibitor” (PLoS ONE, 2011).

Biological target: APH(9)-Ia (Legionella pneumophila, UniProt O06916)
Assay: biochemical

Sequence of APH(9)-Ia (O06916 1-331): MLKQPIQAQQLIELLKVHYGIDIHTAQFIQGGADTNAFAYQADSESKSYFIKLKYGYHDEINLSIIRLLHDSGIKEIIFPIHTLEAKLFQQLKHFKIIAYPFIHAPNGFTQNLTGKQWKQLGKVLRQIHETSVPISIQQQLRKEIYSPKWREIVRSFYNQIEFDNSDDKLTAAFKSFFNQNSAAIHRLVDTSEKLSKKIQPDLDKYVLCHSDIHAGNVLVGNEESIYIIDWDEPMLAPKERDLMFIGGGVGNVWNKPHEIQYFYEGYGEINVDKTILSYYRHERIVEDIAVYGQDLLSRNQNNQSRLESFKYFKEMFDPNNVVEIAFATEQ

With `NCCNS(=O)(=O)c1ccc(Cl)c2ccncc12` [CKI-7, N-(2-aminoethyl)-5-chloro-isoquinoline-8-sulfonamide] the Ki was 159 ± 11 µM.
